Reference: paper PMC9964746, “Mechanism of Action and Structure–Activity Relationships of Tetracyclic Small Molecules Acting as Universal Positive Allosteric Modulators of the Cholecystokinin Receptor” (Membranes, 2023)
Where “and” joins values, the source holds several entries; their conditions need not be identical. Equal values may be shown once.

Experiments:
Assay type in all cases: cell-based
parental CHO cells = assay: Intracellular calcium assay in parental CHO cells; conditions: compound alone, up to 20 µM
Method: (§1) Biological activity was quantified in the CHO cell lines described above using intracellular calcium assays that were performed, as previously described, using Fura-8-AM (AAT Bioquest, Pleasonton, CA, USA). Full agonist dose–response curves were performed along with determination of maximal responses to 0.1 mM ATP, targeting an endogenous receptor present on the parental cells. Concentration–response curves of peak intracellular calcium responses were analyzed and plotted as percentages of maximal responses using non-linear regression analysis in Prism 9.1 (GraphPad).

CCK1R [1] = target: T1, CCK1R (Homo sapiens, UniProt P32238); assay: CCK1R cAMP accumulation assay, PAM format, HEK-293 CCK1R cells; set-up: expressed in transfected cells; host or cells: HEK-293; conditions: for EC50: EC20 concentration of CCK; for Emax: HEK293, EC20 concentration of CCK
T1 sequence (P32238 1-428): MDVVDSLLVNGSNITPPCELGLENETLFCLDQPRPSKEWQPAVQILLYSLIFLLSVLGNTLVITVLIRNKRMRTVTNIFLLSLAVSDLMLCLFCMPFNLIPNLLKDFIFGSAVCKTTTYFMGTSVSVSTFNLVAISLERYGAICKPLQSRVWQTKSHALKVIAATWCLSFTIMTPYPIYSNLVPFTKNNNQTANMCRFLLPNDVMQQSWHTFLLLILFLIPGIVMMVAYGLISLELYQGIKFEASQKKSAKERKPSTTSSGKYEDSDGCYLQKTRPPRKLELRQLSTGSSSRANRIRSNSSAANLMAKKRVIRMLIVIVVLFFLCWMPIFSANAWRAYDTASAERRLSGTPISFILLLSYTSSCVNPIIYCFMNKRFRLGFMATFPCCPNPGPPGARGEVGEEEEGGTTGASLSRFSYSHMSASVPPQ
Method: Possible off-target biological effects. […] Here, we tested them at the vasopressin-2 receptor (AVP2R), representing a class A GPCR structurally related to CCK1R, which is coupled to Gs. The activity at AVP2R was tested using AVP2R-overexpressing CHO-K1 (PAM format) or HEK-293 (agonist format) cells, stimulating the cells with vasopressin. Original hits were tested in both agonist and PAM formats. Since all recognized compound responses were present in both formats, we continued to screen analogs in only the PAM format (also able to capture agonist effects) in CHO-K1 AVP2R cells for potential enhanced sensitivity. The dose–response data sets for original hits were combined, as the PAM and agonist effects were indistinguishable. In brief, arginine vasopressin (AVP) orthosteric stimulator dilutions and ligand and compound dose–response titrations in DMSO were transferred onto a 1536-well plate (Corning #3725) using an Echo liquid handler (Labcyte). Thawed cryopreserved cell stocks were diluted in stimulation buffer consisting of HBSS (Hank’s Balanced Salt Solution with Ca^2+ and Mg^2+, Gibco #24020117), 5 mM HEPES (hydroxyethyl piperazineethanesulfonic acid), 0.5 mM IBMX (3-isobutyl-1-methylxanthine, Sigma-Aldrich), and 0.075% BSA (7.5% DTPA-purified bovine serum albumin, PerkinElmer). The resulting cell suspension was added to the microplate and incubated with test compounds at room temperature for 30 min. Then, the detection reagents from the Cisbio cAMP Gs Dynamic HTRF detection kit were added. The plate was kept at room temperature for 30 min and read on a PHERAstar FSX microplate reader. Dose–response curves were performed as 16-point 2-fold dilutions in duplicate in at least two independent experiments.
For CCK1R-induced Gs signaling studies, we performed cAMP accumulation assays as described above and as previously reported, utilizing the HEK-293 cells overexpressing CCK1Rs and the EC20 concentration of CCK for screening in PAM format.

[2] = target: T2, vasopressin-2 receptor (AVP2R) (Homo sapiens, UniProt P30518); assay: AVP2R cAMP HTRF accumulation assay; conditions: for AVP2R PAM (cAMP) Score (activity score = normalized Emax × pEC50): PAM format
T2 construct: expressed in transfected cells; host or cells: CHO-K1 (PAM format); HEK-293 (agonist format)
Method in brief: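 Readout is HTRF cAMP detection (30 min, room temperature) following 30 min compound exposure with vasopressin stimulation, using HEK-293 cells for agonist mode and CHO-K1 cells for PAM mode, both overexpressing AVP2R, in IBMX-containing HBSS/HEPES buffer. Curves: 16 points, 2-fold steps, duplicate, ≥2 experiments.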

CCK1R [3] = target: T1, CCK1R; assay: Intracellular calcium assay (Fura-8-AM) in CHO-CCK1R cells; set-up: expressed in transfected cells; conditions: for Intrinsic agonist activity at CCK1R (intracellular calcium): CHO-CCK1R cells, compound alone, up to 20 µM; for Kb / Logαβ: operational model of allosterism, mean ± SEM; for Kb: CCK-8-stimulated calcium responses in CCK1R-expressing cells; for Logαβ: cooperativity with CCK-8 in CCK1R-expressing cells
Method: as §1

[4] = CHO-K1 AVP2R cells, PAM format with vasopressin, original hits: agonist and PAM data combined, average ± SD

T2 sequence (P30518 whole entry): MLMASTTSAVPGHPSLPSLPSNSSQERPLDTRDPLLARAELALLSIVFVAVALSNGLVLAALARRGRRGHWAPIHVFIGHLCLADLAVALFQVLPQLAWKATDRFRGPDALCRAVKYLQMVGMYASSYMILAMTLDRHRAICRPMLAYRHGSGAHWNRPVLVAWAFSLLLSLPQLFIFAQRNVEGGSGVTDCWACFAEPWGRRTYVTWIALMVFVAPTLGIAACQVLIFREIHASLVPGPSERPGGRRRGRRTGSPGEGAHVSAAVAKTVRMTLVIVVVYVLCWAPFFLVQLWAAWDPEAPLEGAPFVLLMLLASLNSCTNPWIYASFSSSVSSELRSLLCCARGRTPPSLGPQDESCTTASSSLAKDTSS

Emax [2, 4] [%]	Logαβ (CCK1R [3]; listed as Hit 6)	Logαβ (CCK1R [3]; listed as hit 6)	SMILES	Agonist activity at parental CHO cells (intracellular calcium) (parental CHO cells)	EC50 (CCK1R [1]) [µM]	Emax (CCK1R [1]) [%]	AVP2R PAM (cAMP) Score (activity score = normalized Emax × pEC50) ([2]; CHO-K1 AVP2R cells)	EC50 [2, 4] [µM]	Intrinsic agonist activity at CCK1R (intracellular calcium) (CCK1R [3])	Kb (CCK1R [3]) [µM]	Emax ([2]; CHO-K1, CHO-K1 AVP2R cells, PAM format with vasopressin, original hits: agonist and PAM data combined, average ± SD) [%]	AVP2R PAM (cAMP) Emax [2, 4] [%]	Logαβ (CCK1R [3]; listed as Hit 1)	Logαβ (CCK1R [3]; listed as hit 1)
73 ± 16	1.0 ± 0.2	1.0	CCCc1nc2oc3c(NCCCN(C)C)ncnc3c2c2c1CCCC2 [CMP-28]	no significant endogenous agonist activity	15.6 ± 12.4	56 ± 26	3.53	15 ± 13.6	no significant endogenous agonist activity at CCK1R	25.1				
			CCN(CC)CCNc1ncnc2c1sc1nc(N3CCOCC3)c3c(c12)CCCC3 [CMP-1]	no significant endogenous agonist activity	14.7 ± 7.3	48 ± 31	1.0 and 1.02	12 ± 7.1	no significant endogenous agonist activity at CCK1R	31.6	21	20.7 ± 9.8	1.5 ± 0.3	1.5
